Measured values taken from US8252832B2, “Kinesin inhibitors as cancer therapeutics” (Novartis AG, priority 2007, dated 2012).
Where two headings read alike, the source gives them in different places.

Test system: panel of cell lines and tumor explants
Assay: Soft agar (clonogenic) assay on cell lines and tumor explants
Format: cell-based, human
Design: key to Differential: panel average log(GI50) minus sample log(GI50); positive = more sensitive
Conditions: for GI50: Homo sapiens; for Differential: average log(GI50) 0.236 minus log(GI50)
Description: Compound IIa was tested against a panel of cell lines and tumor explants in a soft agar assay as described in Fiebig, H. H., Maier, A., and Burger, A. M. (Clonogenic assay with established human tumour xenorafts: correlation of in vitro to in vivo activity as a basis for anticancer drug discovery, Eur. J. Cancer 40, 802-820 (2004).) Table 16 lists the type of cancer, the name of the sample, its GI50 (concentration needed to achieve 50% growth inhibition) value in the assay, the logarithm of the GI50 (log(GI50), and the relative sensitivity of each sample (Differential). The differential is calculated by subtracting the log(GI50) for each cell line from the average log(GI50) across the entire panel (0.236 in this case); a positive value indicates a sample that is more sensitive than average, whereas a negative value indicates a sample that is less sensitive than average.

CC(C)(C)[C@H](c1nc(-c2cc(F)ccc2F)cn1Cc1ccccc1)N(CC[C@H](N)CF)C(=O)CO [Compound IIa]
GI50 (MOLT-4, Leukemia (ALL), sample MOLT4, read-out: GI50): 0.877 nM
GI50 (Mean across the entire panel, read-out: GI50): 1.72 nM
GI50 (Melanoma, sample 462, GI50 in nM, read-out: log(GI50) (converted)): ≥ 10 nM
GI50 (Melanoma, sample 462, read-out: GI50): 10 nM
GI50 (Melanoma, sample 989, GI50 in nM, read-out: log(GI50) (converted)): 12.7 nM
GI50 (Melanoma, sample 989, read-out: GI50): 12.7 nM
GI50 (Melanoma, sample 1341, GI50 in nM, read-out: log(GI50) (converted)): ≥ 10 nM
GI50 (Melanoma, sample 1341, read-out: GI50): 10 nM
GI50 (NSCLC, sample 211, GI50 in nM, read-out: log(GI50) (converted)): 0.216 nM
GI50 (NSCLC, sample 211, read-out: GI50): 0.216 nM
GI50 (NSCLC, sample 289, GI50 in nM, read-out: log(GI50) (converted)): 4.9 nM
GI50 (NSCLC, sample 289, read-out: GI50): 4.9 nM
GI50 (NSCLC, sample 526, GI50 in nM, read-out: log(GI50) (converted)): 1.26 nM
GI50 (NSCLC, sample 526, read-out: GI50): 1.26 nM
GI50 (NSCLC, sample 629, GI50 in nM, read-out: log(GI50) (converted)): ≥ 10 nM
GI50 (NSCLC, sample 629, read-out: GI50): 10 nM
GI50 (NSCLC, sample 677, GI50 in nM, read-out: log(GI50) (converted)): 1.16 nM
GI50 (NSCLC, sample 677, read-out: GI50): 1.16 nM
GI50 (NSCLC, sample 737, GI50 in nM, read-out: log(GI50) (converted)): 3.07 nM
GI50 (NSCLC, sample 737, read-out: GI50): 3.07 nM
GI50 (NSCLC, sample 1012, GI50 in nM, read-out: log(GI50) (converted)): 0.927 nM
GI50 (NSCLC, sample 1012, read-out: GI50): 0.926 nM
GI50 (NSCLC, sample 1176, GI50 in nM, read-out: log(GI50) (converted)): 3 nM
GI50 (NSCLC, sample 1176, read-out: GI50): 3 nM
GI50 (NSCLC, sample 1422, GI50 in nM, read-out: log(GI50) (converted)): 0.728 nM
GI50 (NSCLC, sample 1422, read-out: GI50): 0.728 nM
GI50 (NSCLC, sample 1647, GI50 in nM, read-out: log(GI50) (converted)): 16.7 nM
GI50 (NSCLC, sample 1647, read-out: GI50): 16.8 nM
GI50 (Ovarian, sample 899, GI50 in nM, read-out: log(GI50) (converted)): ≥ 10 nM
GI50 (Ovarian, sample 899, read-out: GI50): 10 nM
GI50 (Ovarian, sample 1353, GI50 in nM, read-out: log(GI50) (converted)): ≥ 10 nM
GI50 (Ovarian, sample 1353, read-out: GI50): 10 nM
GI50 (PC-3M, Prostate, sample PC3M, GI50 in nM, read-out: log(GI50) (converted)): 0.424 nM
GI50 (PC-3M, Prostate, sample PC3M, read-out: GI50): 0.424 nM
GI50 (Pancreas, sample 546, GI50 in nM, read-out: log(GI50) (converted)): 2.59 nM
GI50 (Pancreas, sample 546, read-out: GI50): 2.59 nM
GI50 (Pancreas, sample 736, GI50 in nM, read-out: log(GI50) (converted)): 1.26 nM
GI50 (Pancreas, sample 736, read-out: GI50): 1.26 nM
GI50 (Pancreas, sample 1657, GI50 in nM, read-out: log(GI50) (converted)): 27 nM
GI50 (Pancreas, sample 1657, read-out: GI50): 27 nM
GI50 (Pancreas, sample 1861, GI50 in nM, read-out: log(GI50) (converted)): 0.622 nM
GI50 (Pancreas, sample 1861, read-out: GI50): 0.623 nM
GI50 (Pancreas, sample 1869, GI50 in nM, read-out: log(GI50) (converted)): 10.9 nM
GI50 (Pancreas, sample 1869, read-out: GI50): 10.9 nM
GI50 (Pancreas, sample 1872, GI50 in nM, read-out: log(GI50) (converted)): 0.282 nM
GI50 (Pancreas, sample 1872, read-out: GI50): 0.282 nM
GI50 (Pancreas, sample 1876, GI50 in nM, read-out: log(GI50) (converted)): 0.337 nM
GI50 (Pancreas, sample 1876, read-out: GI50): 0.337 nM
GI50 (Pancreas, sample 1881, GI50 in nM, read-out: log(GI50) (converted)): 2.32 nM
GI50 (Pancreas, sample 1881, read-out: GI50): 2.32 nM
GI50 (Pancreas, sample 1887, GI50 in nM, read-out: log(GI50) (converted)): ≥ 10 nM
GI50 (Pancreas, sample 1887, read-out: GI50): 10 nM
GI50 (Pancreas, sample 1900, GI50 in nM, read-out: log(GI50) (converted)): 16.9 nM
GI50 (Pancreas, sample 1900, read-out: GI50): 16.9 nM
GI50 (Pancreas, sample 1912, GI50 in nM, read-out: log(GI50) (converted)): 0.112 nM
GI50 (Pancreas, sample 1912, read-out: GI50): 0.112 nM
GI50 (Pancreas, sample 1937, GI50 in nM, read-out: log(GI50) (converted)): 0.185 nM
GI50 (Pancreas, sample 1937, read-out: GI50): 0.185 nM
GI50 (Prostate, sample MRIH1579, GI50 in nM, read-out: log(GI50) (converted)): ≥ 10 nM
GI50 (Prostate, sample MRIH1579, read-out: GI50): 10 nM
GI50 (SCLC, sample 538, GI50 in nM, read-out: log(GI50) (converted)): 0.339 nM
GI50 (SCLC, sample 538, read-out: GI50): 0.339 nM
GI50 (SCLC, sample 573, GI50 in nM, read-out: log(GI50) (converted)): 0.587 nM
GI50 (SCLC, sample 573, read-out: GI50): 0.587 nM
GI50 (SCLC, sample 615, GI50 in nM, read-out: log(GI50) (converted)): 0.082 nM
GI50 (SCLC, sample 615, read-out: GI50): 0.082 nM
GI50 (SCLC, sample 650, GI50 in nM, read-out: log(GI50) (converted)): 0.376 nM
GI50 (SCLC, sample 650, read-out: GI50): 0.376 nM
GI50 (SCLC, sample H69, GI50 in nM, read-out: log(GI50) (converted)): 0.269 nM
GI50 (SCLC, sample H69, read-out: GI50): 0.269 nM
GI50 (Sarcoma, sample 117, GI50 in nM, read-out: log(GI50) (converted)): 0.249 nM
GI50 (Sarcoma, sample 117, read-out: GI50): 0.249 nM
GI50 (Sarcoma, sample 417, GI50 in nM, read-out: log(GI50) (converted)): 0.16 nM
GI50 (Sarcoma, sample 417, read-out: GI50): 0.16 nM
GI50 (Sarcoma, sample 463, GI50 in nM, read-out: log(GI50) (converted)): 19.1 nM
GI50 (Sarcoma, sample 463, read-out: GI50): 19.1 nM
GI50 (Sarcoma, sample 627, GI50 in nM, read-out: log(GI50) (converted)): ≥ 10 nM
GI50 (Sarcoma, sample 627, read-out: GI50): 10 nM
GI50 (Sarcoma, sample 1186, GI50 in nM, read-out: log(GI50) (converted)): 0.327 nM
GI50 (Sarcoma, sample 1186, read-out: GI50): 0.327 nM
GI50 (Sarcoma, sample 1301, GI50 in nM, read-out: log(GI50) (converted)): 0.235 nM
GI50 (Sarcoma, sample 1301, read-out: GI50): 0.235 nM
GI50 (Sarcoma, sample 1410, GI50 in nM, read-out: log(GI50) (converted)): 2.24 nM
GI50 (Sarcoma, sample 1410, read-out: GI50): 2.25 nM
GI50 (U-937, Lymphoma (NHL), sample U937, GI50 in nM, read-out: log(GI50) (converted)): 0.0859 nM
GI50 (U-937, Lymphoma (NHL), sample U937, read-out: GI50): 0.086 nM
Differential (Leukemia (ALL), sample CCRFCEM): 0.779
Differential (Leukemia (ALL), sample JURKAT): 1.211
Differential (Leukemia (ALL), sample MOLT4): 0.293
Differential (Leukemia (CML), sample K562): 0.805
Differential (Lymphoma (NHL), sample U937): 1.302
log(GI50) (Mean across the entire panel, GI50 in nM): 0.236
Differential (Melanoma, sample 462): −0.764
Differential (Melanoma, sample 989): −0.868
Differential (Melanoma, sample 1341): −0.764
Differential (NSCLC, sample 211): 0.902
Differential (NSCLC, sample 289): −0.454
Differential (NSCLC, sample 526): 0.134
Differential (NSCLC, sample 629): −0.764
Differential (NSCLC, sample 677): 0.171
Differential (NSCLC, sample 737): −0.250
Differential (NSCLC, sample 1012): 0.270
Differential (NSCLC, sample 1176): −0.241
Differential (NSCLC, sample 1422): 0.374
Differential (NSCLC, sample 1647): −0.988
Differential (Ovarian, sample 899): −0.764
Differential (Ovarian, sample 1353): −0.764
Differential (Pancreas, sample 546): −0.177
Differential (Pancreas, sample 736): 0.134
Differential (Pancreas, sample 1657): −1.194
Differential (Pancreas, sample 1861): 0.442
Differential (Pancreas, sample 1869): −0.800
Differential (Pancreas, sample 1872): 0.786
Differential (Pancreas, sample 1876): 0.709
Differential (Pancreas, sample 1881): −0.128
Differential (Pancreas, sample 1887): −0.764
Differential (Pancreas, sample 1900): −0.992
Differential (Pancreas, sample 1912): 1.187
Differential (Pancreas, sample 1937): 0.969
Differential (Prostate, sample 22RV1): 0.506
Differential (Prostate, sample DU145): 0.236
Differential (Prostate, sample MRIH1579): −0.764
Differential (Prostate, sample PC3M): 0.609
Differential (SCLC, sample 538): 0.706
Differential (SCLC, sample 573): 0.468
Differential (SCLC, sample 615): 1.323
Differential (SCLC, sample 650): 0.661
Differential (SCLC, sample H69): 0.807
Differential (Sarcoma, sample 117): 0.840
Differential (Sarcoma, sample 417): 1.032
Differential (Sarcoma, sample 463): −1.045
Differential (Sarcoma, sample 627): −0.764
Differential (Sarcoma, sample 1186): 0.722
Differential (Sarcoma, sample 1301): 0.865
Differential (Sarcoma, sample 1410): −0.115
sensitive samples / samples (bladder): 4/6
sensitive samples / samples (breast): 7/10
sensitive samples / samples (hematological cancers (leukemia and lymphoma)): 5/5
sensitive samples / samples (sarcomas): 4/7
sensitive samples / samples (small cell lung cancer (SCLC)): 5/5
average log(GI50) across the entire panel (soft agar assay panel): 0.236
